According to patent publication US20070219203A1, “Arylalkylamino-substituted quinazoline analogues” (Neurogen Corporation, priority 2004, published 2007):

Molecular target: T1, human capsaicin receptor (Homo sapiens, UniProt Q8NER1)
T1 construct: expressed in transfected cells
Experiment: Calcium mobilization assay, antagonist activity (Example 6)
Format: cell-based
Details: 50% decrease in fluorescence response of cells expressing human capsaicin receptor exposed to capsaicin
Protocol: A cDNA encoding full length human capsaicin receptor (SEQ ID NO:1, 2 or 3 of U.S. Pat. No. 6,482,611) is subcloned in the plasmid pBK-CMV (Stratagene, La Jolla, Calif.) for recombinant expression in mammalian cells.
Human embryonic kidney (HEK293) cells are transfected with the pBK-CMV expression construct encoding the full length human capsaicin receptor using standard methods. The transfected cells are selected for two weeks in media containing G418 (400 μg/ml) to obtain a pool of stably transfected cells. Independent clones are isolated from this pool by limiting dilution to obtain clonal stable cell lines for use in subsequent experiments.
Cells transfected with expression plasmids (as described in Example 4) and thereby expressing human capsaicin receptor are seeded and grown to 70-90% confluency in FALCON black-walled, clear-bottomed 96-well plates (#3904, BECTON-DICKINSON, Franklin Lakes, N.J.). The culture medium is emptied from the 96 well plates and […] calcium sensitive dye (Molecular Probes, Eugene, Oreg.) is added to each well (dye solution: 1 mg […], 440 μL DMSO and 440 μl 20% pluronic acid in DMSO, diluted 1:250 in Krebs-Ringer HEPES (KRH) buffer (25 mM HEPES, 5 mM KCl, 0.96 mM NaH2PO4, 1 mM MgSO4, 2 mM CaCl2, 5 mM glucose, 1 mM probenecid, pH 7.4), 50 μl diluted solution per well). Plates are covered with aluminum foil and incubated at 37° C. for 1-2 hours in an environment containing 5% CO2. After the incubation, the dye is emptied from the plates, and the cells are washed once with KRH buffer, and resuspended in KRH buffer.
To measure the ability of a test compound to agonize or antagonize a calcium mobilization response in cells expressing capsaicin receptors to capsaicin or other vanilloid agonist, the EC50 of the agonist capsaicin is first determined. An additional 20 μl of KRH buffer and 1 μl DMSO is added to each well of cells, prepared as described above. 100 μl capsaicin in KRH buffer is automatically transferred by the FLIPR instrument to each well. Capsaicin-induced calcium mobilization is monitored using either FLUOROSKAN ASCENT (Labsystems; Franklin, Mass.) or FLIPR (fluorometric imaging plate reader system; Molecular Devices, Sunnyvale, Calif.) instruments. Data obtained between 30 and 60 seconds after agonist application are used to generate an 8-point concentration response curve, with final capsaicin concentrations of 1 nM to 3 μM. KALEIDAGRAPH software (Synergy Software, Reading, Pa.) is used to fit the data to the equation: y=a*(1/(1+(b/x)^c)) to determine the 50% excitatory concentration (EC50) for the response. In this equation, y is the maximum fluorescence signal, x is the concentration of the agonist or antagonist (in this case, capsaicin), a is the Emax, b corresponds to the EC50 value and c is the Hill coefficient. Determination of Agonist Activity
Test compounds are dissolved in DMSO, diluted in 20 μl KRH buffer so that the final concentration of test compounds in the assay well is between 1 μM and 5 μM, and added to cells prepared as described above. The 96 well plates containing prepared cells and test compounds are incubated in the dark, at room temperature for 0.5 to 6 hours. It is important that the incubation not continue beyond 6 hours. Just prior to determining the fluorescence response, 100 μl capsaicin in KRH buffer at twice the EC50 concentration determined as described above is automatically added by the FLIPR instrument to each well of the 96 well plate for a final sample volume of 200 μl and a final capsaicin concentration equal to the EC50. The final concentration of test compounds in the assay wells is between 1 μM and 5 μM. […] The concentration of antagonist required to provide a 50% decrease, relative to the response observed in the presence of capsaicin and without antagonist, is the IC50 for the antagonist, and is preferably below 1 micromolar, 100 nanomolar, 10 nanomolar or 1 nanomolar.

T1 sequence (Q8NER1 whole entry): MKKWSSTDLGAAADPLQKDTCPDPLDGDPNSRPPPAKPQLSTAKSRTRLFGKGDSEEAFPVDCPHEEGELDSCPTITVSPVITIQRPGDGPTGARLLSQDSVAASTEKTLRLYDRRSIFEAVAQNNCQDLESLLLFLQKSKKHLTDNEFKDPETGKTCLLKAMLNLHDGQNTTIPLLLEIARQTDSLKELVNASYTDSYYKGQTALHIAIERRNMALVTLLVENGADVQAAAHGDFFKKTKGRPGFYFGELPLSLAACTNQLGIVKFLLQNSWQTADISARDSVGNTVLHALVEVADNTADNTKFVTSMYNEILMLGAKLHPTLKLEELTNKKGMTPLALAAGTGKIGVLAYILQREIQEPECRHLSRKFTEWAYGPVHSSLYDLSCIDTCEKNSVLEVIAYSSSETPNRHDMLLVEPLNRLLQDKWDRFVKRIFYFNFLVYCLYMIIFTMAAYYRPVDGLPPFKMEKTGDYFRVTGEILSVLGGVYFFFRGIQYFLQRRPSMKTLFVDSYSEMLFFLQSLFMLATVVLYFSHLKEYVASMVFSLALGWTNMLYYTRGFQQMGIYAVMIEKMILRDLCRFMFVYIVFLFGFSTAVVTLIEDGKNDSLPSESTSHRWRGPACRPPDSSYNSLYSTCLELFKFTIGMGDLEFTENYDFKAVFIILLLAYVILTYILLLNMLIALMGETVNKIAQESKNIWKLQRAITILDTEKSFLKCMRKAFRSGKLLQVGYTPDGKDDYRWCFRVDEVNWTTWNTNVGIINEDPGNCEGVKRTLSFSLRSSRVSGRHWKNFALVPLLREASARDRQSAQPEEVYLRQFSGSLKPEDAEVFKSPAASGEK

SMILES | IC50 (Table II) | IC50 (Table I)
C[C@@H]1CN(Cc2nc(NCCc3ccccc3Cl)c3ccc(-c4ncccc4Cl)cc3n2)C[C@@H](C)O1 (stereo in doubt) [Compound 166, [2-(2-Chloro-phenyl)-ethyl]-[7-(3-chloro-pyridin-2-yl)-2-(2,6-dimethyl-morpholin-4-ylmethyl)-quinazolin-4-yl]-amine] | ≤ 1 µM | 
FC(F)(F)c1ccccc1-c1ccc2c(NCCc3ccccc3)ncnc2c1 [Compound 1, N-(2-phenylethyl)-7-{2-(trifluoromethyl)phenyl]quinazolin-4-amine] |  | ≤ 1 µM
Fc1ccccc1CCNc1ncnc2cc(-c3ncccc3C(F)(F)F)ccc12 [Compound 6, N-[2-(2-fluorophenyl)ethyl]-7-[3-(trifluoromethyl)pyridin-2-yl]quinazolin-4-amine] |  | ≤ 1 µM
Fc1cccc(CCNc2ncnc3cc(-c4ncccc4C(F)(F)F)ccc23)c1 [Compound 7, N-[2-(3-fluorophenyl)ethyl]-7-[3-(trifluoromethyl)pyridin-2-yl]quinazolin-4-amine] |  | ≤ 1 µM
Fc1ccc(CCNc2ncnc3cc(-c4ncccc4C(F)(F)F)ccc23)cc1 [Compound 8, N-[2-(4-fluorophenyl)ethyl]-7-[3-(trifluoromethyl)pyridin-2-yl]quinazolin-4-amine] |  | ≤ 1 µM
COc1ccccc1CCNc1ncnc2cc(-c3ncccc3C(F)(F)F)ccc12 [Compound 9, N-[2-(2-methoxyphenyl)ethYl]-7-{3-(trifluoromethyl)pyridin-2-yl]quinazolin-4-amine] |  | ≤ 1 µM
COc1cccc(CCNc2ncnc3cc(-c4ncccc4C(F)(F)F)ccc23)c1 [Compound 10, N-[2-(3-methoxyphenyl)ethyl]7-[3-(trifluoromethyl)pyridin-2-yl]quinazolin-4-amine] |  | ≤ 1 µM
COc1ccc(CCNc2ncnc3cc(-c4ncccc4C(F)(F)F)ccc23)cc1 [Compound 11, N-[2-(4-methoxyphenyl)ethyl]-7-[3-(trifluoromethyl)pyridin-2-yl]quinazolin-4-amine] |  | ≤ 1 µM
FC(F)(F)c1cccnc1-c1ccc2c(NCCc3ccccc3Cl)ncnc2c1 [Compound 12, N-[2-(2-chlorophenyl)ethyl]-7-[3-(trifluoromethyl)pyridin-2-yl]quinazolin-4-amine] |  | ≤ 1 µM
FC(F)(F)c1cccnc1-c1ccc2c(NCCc3cccc(Cl)c3)ncnc2c1 [Compound 13, N-[2-(3-chlorophenyl)ethyl]-7-{3-(trifluoromethyl)pyridin-2-yl]quinazolin-4-amine] |  | ≤ 1 µM
FC(F)(F)c1cccnc1-c1ccc2c(NCCc3ccc(Cl)cc3)ncnc2c1 [Compound 14, N-[2-(4-chlorophenyl)ethyl]-7-[3-(trifluoromethyl)pyridin-2-yl]quinazolin-4-amine] |  | ≤ 1 µM
FC(F)(F)c1ccccc1CCNc1ncnc2cc(-c3ncccc3C(F)(F)F)ccc12 [Compound 15, N-{2-[2-(trifluoromethyl)phenyl]ethyl}-7-[3-(trifluoromethyl)pyridin-2-yl]quinazolin-4-amine] |  | ≤ 1 µM
FC(F)(F)c1cccc(CCNc2ncnc3cc(-c4ncccc4C(F)(F)F)ccc23)c1 [Compound 16, N-{2-[3-(trifluoromethyl)phenyl]ethyl}-7-[3-(trifluoromethyl)pyridin-2-yl]quinazolin-4-amine] |  | ≤ 1 µM
FC(F)(F)c1ccc(CCNc2ncnc3cc(-c4ncccc4C(F)(F)F)ccc23)cc1 [Compound 17, N-{2-[4-(trifluoromethyl)phenyl]ethyl}-7-[3-(trifluoromethyl)pyridin-2-yl]quinazolin-4-amine] |  | ≤ 1 µM
CC(CNc1ncnc2cc(-c3ncccc3C(F)(F)F)ccc12)c1ccccc1 (centres unmarked) [Compound 18, N-(2-phenylpropyl)-7-[3-(trifluoromethyl)pyridin-2-yl]quinazolin-4-amine] |  | ≤ 1 µM
FC(F)(F)c1cccnc1-c1ccc2c(NCCc3c(Cl)cccc3Cl)ncnc2c1 [Compound 19, N-[2-(2,6-dichlorophenyl)ethyl]-7-[3-(trifluoromethyl)pyridin-2-yl]quinazolin-4-amine] |  | ≤ 1 µM
FC(F)(F)c1cccnc1-c1ccc2c(NCCc3ccc(Cl)c(Cl)c3)ncnc2c1 [Compound 20, N-[2-(3,4-dichlorophenyl)ethyl]-7-[3-(trifluoromethyl)pyridin-2-yl]quinazolin-4-anmne] |  | ≤ 1 µM
CC(Cc1ccc(Cl)cc1)Nc1ncnc2cc(-c3ncccc3C(F)(F)F)ccc12 (centres unmarked) [Compound 21, N-[2-(4-chlorophenyl)-1-methylethyl]-7-[3-(trifluoromethyl)pyridin-2-yl]quinazolin-4-amine] |  | ≤ 1 µM
FC(F)(F)c1cccnc1-c1ccc2c(NCCc3ccccc3)ncnc2c1 [Compound 22, N-(2-phenylethyl)-7-[3-(trifluoromethyl)pyridin-2-yl]quinazolin-4-amine] |  | ≤ 1 µM
C[C@@H](CNc1ncnc2cc(-c3ncccc3C(F)(F)F)ccc12)c1ccccc1 [Compound 23, N-[(2R)~2-phenylpropyll]-7-[3-(trifluoromethyl)pyridin-2-yl]quinazolin-4-amine] |  | ≤ 1 µM
C[C@@H]1CN(Cc2nc(NCCc3ccccc3Cl)c3ccc(-c4ncccc4C(F)(F)F)cc3n2)C[C@H](C)O1 [Compound 24, N-[2-(2-chlorophenyl)ethyl]-2-{[(2R,6S)-2,6-dimethylmorpholin-4-yl]methyl}-7-[3-(trifluoromethyl)pyridin-2-yl]quinazolin-4-amine] |  | ≤ 1 µM
C[C@H](CNc1ncnc2cc(-c3ncccc3C(F)(F)F)ccc12)c1ccccc1 [Compound 25, N-[(2S)-2-phenylpropyl]-7-[3 (trifluoromethyl)pyridin-2-yl]quinazolin-4-amine] |  | ≤ 1 µM
Fc1cccc(F)c1CCNc1ncnc2cc(-c3ncccc3C(F)(F)F)ccc12 [Compound 26, N-[2-(2,6-difluorophenyl)ethYl]-7-[3-(trifluoromethyl)pyridin-2-yl]quinazolin-4-amine] |  | ≤ 1 µM
Fc1ccc(CCNc2ncnc3cc(-c4ncccc4C(F)(F)F)ccc23)cc1F [Compound 27, N-[2-(3,4-difluorophenyl)ethyl]-7-[3-(trifluoromethyl)pyridin-2-yl]quinazolin-4-amine] |  | ≤ 1 µM
Fc1cc(F)cc(CCNc2ncnc3cc(-c4ncccc4C(F)(F)F)ccc23)c1 [Compound 28, N-[2-(3,5-difluorophenyl)ethyl]-7-[3-(trifluoromethyl)pyridin-2-yl]quinazolin-4-amine] |  | ≤ 1 µM
C[C@@H]1CN(Cc2nc(NCCc3ccccc3Cl)c3ncc(-c4ncccc4Cl)cc3n2)C[C@H](C)O1 [Compound 29, N-[2-(2-chlorophenyl)ethyl]-7-(3-chloropyridin-2-yl)-2-{[(2R,6S)-2,6-dimethylmorpholin-4-yl]methyl}pyrido[3,2-d]pyrimidin-4-amine] |  | ≤ 1 µM
Cc1nc(NCCc2ccccc2Cl)c2ncc(-c3ncccc3Cl)cc2n1 [Compound 30, N-[2-(2-chlorophenyl)ethyl]-7-(3-chloropyridin-2-yl)-2-methylpyrido[3,2-d]pyrimidin-4-amine] |  | ≤ 1 µM
FC(F)(F)c1cccnc1-c1ccc2c(N[C@@H]3C[C@H]3c3ccccc3)ncnc2c1 [Compound 31, N-[(1R,2S)-2-phenylcyclopropyl]-7-[3-(trifluoromethyl)pyridin-2-yl]quinazolin-4-amine] |  | ≤ 1 µM
Cc1nc(NCCc2ccccc2Cl)c2ccc(-c3ncccc3C)nc2n1 [Compound 32, N-[2-(2-chlorophenyl)ethyl]-2-methyl-7-(3-methylpyridin-2-yl)pyrido[2,3-d]pyrimidin-4-amine] |  | ≤ 1 µM
